Laboratory results reported in patent US11739098B2 (BRISTOL-MYERS SQUIBB COMPANY, priority 2017, dated 2023).

Key:
Type in all cases: cell-based
human TLR8 = molecular target: T1, human TLR8 (Homo sapiens, UniProt Q9NR97); assay: TLR8 inhibition reporter assay (HEK-Blue cells, SEAP reporter, R848 stimulation); settings: HEK-Blue cells overexpressing human TLR8, SEAP reporter, R848 15.9 μM
T1 construct: host or cells: HEK-Blue cells (HEK293-derived reporter line)
T1 sequence (Q9NR97 27-1041): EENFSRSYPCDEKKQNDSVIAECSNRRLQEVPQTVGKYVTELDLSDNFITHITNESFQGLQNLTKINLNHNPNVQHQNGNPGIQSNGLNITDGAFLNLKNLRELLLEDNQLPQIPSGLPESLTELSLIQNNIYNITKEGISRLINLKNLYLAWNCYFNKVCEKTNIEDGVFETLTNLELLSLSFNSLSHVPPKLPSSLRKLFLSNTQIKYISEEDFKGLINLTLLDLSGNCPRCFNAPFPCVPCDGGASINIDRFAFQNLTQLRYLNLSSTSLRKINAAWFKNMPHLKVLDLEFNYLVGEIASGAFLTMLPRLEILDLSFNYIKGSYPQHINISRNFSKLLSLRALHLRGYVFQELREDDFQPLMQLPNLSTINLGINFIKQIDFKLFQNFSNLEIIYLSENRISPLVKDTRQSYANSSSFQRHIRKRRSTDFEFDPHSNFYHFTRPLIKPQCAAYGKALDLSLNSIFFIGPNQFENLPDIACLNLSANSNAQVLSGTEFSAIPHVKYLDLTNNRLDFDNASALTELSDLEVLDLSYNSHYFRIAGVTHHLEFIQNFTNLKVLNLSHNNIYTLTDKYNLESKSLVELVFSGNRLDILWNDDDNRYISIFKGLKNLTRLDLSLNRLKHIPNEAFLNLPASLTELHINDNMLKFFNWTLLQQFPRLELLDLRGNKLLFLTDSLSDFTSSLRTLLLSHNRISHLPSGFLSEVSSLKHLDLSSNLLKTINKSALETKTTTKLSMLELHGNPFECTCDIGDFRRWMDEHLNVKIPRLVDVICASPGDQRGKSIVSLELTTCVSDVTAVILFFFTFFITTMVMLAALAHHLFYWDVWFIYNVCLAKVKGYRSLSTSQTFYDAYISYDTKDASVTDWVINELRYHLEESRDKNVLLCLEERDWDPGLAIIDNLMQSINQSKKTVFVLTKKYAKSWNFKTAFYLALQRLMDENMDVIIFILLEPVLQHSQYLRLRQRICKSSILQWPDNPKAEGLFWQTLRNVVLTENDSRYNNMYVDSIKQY
Summary of the method: (§1)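 Percent inhibition of agonist-induced SEAP secretion in HEK-Blue cells after 22 h at 37 °C. Stimuli: 7.5 μM gardiquimod, 15.9 μM R848, 5 nM ODN2006 for TLR7, TLR8 and TLR9, added after 30 min compound exposure over a 0.05 nM–50 μM range.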

human TLR7 = molecular target: T2, human TLR7 (Homo sapiens, UniProt Q9NYK1); assay: TLR7 inhibition reporter assay (HEK-Blue cells, SEAP reporter, gardiquimod stimulation); settings: HEK-Blue cells overexpressing human TLR7, SEAP reporter, gardiquimod 7.5 μM
T2 construct: host or cells: HEK-Blue cells (HEK293-derived reporter line)
T2 sequence (Q9NYK1 27-1049): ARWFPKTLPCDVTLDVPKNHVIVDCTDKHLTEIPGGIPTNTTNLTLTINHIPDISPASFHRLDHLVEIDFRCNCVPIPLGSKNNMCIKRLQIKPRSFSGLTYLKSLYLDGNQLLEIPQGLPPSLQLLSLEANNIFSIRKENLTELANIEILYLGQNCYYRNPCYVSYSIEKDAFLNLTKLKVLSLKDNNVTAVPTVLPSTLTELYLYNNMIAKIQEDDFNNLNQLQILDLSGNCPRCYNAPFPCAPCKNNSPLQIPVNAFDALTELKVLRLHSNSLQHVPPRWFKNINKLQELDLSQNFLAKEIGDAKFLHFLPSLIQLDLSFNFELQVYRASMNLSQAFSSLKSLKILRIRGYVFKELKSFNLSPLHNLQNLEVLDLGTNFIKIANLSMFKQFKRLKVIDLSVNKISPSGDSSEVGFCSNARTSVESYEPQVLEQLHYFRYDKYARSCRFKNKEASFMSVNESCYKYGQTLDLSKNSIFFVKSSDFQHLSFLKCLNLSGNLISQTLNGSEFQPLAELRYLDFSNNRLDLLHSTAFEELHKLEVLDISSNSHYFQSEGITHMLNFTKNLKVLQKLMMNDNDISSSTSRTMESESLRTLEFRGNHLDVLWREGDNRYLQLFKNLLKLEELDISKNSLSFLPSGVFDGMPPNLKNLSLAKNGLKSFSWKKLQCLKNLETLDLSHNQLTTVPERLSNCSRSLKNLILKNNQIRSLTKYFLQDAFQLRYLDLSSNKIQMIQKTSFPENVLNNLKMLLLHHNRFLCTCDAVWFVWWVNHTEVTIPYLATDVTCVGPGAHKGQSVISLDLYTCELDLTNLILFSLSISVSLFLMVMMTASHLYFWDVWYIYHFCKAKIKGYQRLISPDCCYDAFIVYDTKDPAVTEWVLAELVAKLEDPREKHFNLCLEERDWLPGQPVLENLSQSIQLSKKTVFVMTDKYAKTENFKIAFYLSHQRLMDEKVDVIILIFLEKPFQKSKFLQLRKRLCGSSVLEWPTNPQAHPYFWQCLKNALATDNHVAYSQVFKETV
Summary of the method: as §1

human TLR9 = molecular target: T3, human TLR9 (Homo sapiens, UniProt Q9NR96); assay: TLR9 inhibition reporter assay (HEK-Blue cells, SEAP reporter, ODN2006 stimulation); settings: HEK-Blue cells overexpressing human TLR9, SEAP reporter, ODN2006 5 nM
T3 construct: host or cells: HEK-Blue cells (HEK293-derived reporter line)
T3 sequence (Q9NR96 26-1032): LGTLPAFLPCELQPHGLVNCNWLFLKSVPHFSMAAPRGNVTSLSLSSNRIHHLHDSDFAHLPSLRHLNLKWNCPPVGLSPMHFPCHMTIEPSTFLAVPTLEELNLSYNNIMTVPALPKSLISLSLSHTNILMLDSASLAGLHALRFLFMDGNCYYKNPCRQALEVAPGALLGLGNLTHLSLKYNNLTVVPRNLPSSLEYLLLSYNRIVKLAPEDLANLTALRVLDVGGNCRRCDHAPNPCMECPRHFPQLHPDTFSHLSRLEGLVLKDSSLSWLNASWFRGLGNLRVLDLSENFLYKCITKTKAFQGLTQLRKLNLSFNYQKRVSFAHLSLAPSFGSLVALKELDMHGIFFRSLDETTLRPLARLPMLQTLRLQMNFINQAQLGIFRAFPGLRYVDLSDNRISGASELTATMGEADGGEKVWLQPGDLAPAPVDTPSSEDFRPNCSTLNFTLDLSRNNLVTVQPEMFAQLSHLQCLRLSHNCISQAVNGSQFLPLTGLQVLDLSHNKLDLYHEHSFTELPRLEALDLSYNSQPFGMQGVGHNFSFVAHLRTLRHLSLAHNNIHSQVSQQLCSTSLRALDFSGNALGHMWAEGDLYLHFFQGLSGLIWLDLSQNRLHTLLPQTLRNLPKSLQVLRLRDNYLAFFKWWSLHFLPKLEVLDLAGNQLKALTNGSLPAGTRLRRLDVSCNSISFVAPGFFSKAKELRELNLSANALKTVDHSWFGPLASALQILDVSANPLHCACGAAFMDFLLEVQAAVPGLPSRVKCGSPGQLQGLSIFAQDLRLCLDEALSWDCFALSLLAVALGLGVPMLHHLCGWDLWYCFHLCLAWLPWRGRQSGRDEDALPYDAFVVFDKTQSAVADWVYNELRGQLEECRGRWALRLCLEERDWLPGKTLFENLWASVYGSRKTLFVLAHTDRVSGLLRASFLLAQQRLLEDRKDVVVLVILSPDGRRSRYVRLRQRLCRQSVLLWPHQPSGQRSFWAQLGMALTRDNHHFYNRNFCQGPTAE
Summary of the method: as §1

| Structure (SMILES) | IC50 (human TLR8) | IC50 (human TLR7) | IC50 (human TLR9) |
| --- | --- | --- | --- |
| CNCC(=O)N1CCC(c2ccc3[nH]c(-c4cc(OC)c5nccn5c4)c(C(C)C)c3c2)CC1 [Example 559, 1-(4-(3-isopropyl-2-(8-methoxyimidazo[1,2-a]pyridin-6-yl)-1H-indol-5-yl)piperidin-1-yl)-2-(methylamino)ethan-1-one] | < 100 nM | < 100 nM | 100 to 1000 nM |
| Cc1c(-c2[nH]c3ccc(C4CCN(CCS(C)(=O)=O)CC4)cc3c2C(C)C)cn2nnnc2c1C [Example 786, 6-(3-isopropyl-5-(1-(2-(methylsulfonyl)ethyl)piperidin-4-yl)-1H-indol-2-yl)-7,8-dimethyltetrazolo[1,5-a]pyridine] | < 100 nM | < 100 nM | 1000 to 50000 nM |
| Cc1cc(-c2[nH]c3ccc(C4CCN(CCS(C)(=O)=O)CC4)cc3c2C(C)C)cc2cnnn12 [Example 795, 5-(3-isopropyl-5-(1-(2-(methylsulfonyl)ethyl)piperidin-4-yl)-1H-indol-2-yl)-7-methyl-[1,2,3]triazolo[1,5-a]pyridine] | < 100 nM | < 100 nM | 1000 to 50000 nM |
| CC(C)c1c(-c2ccc3nnnn3c2)[nH]c2ccc(C3CCN(CC(=O)N(C)C)CC3)cc12 [Example 301, 2-(4-(3-isopropyl-2-(tetrazolo[1,5-a]pyridin-6-yl)-1H-indol-5-yl)piperidin-1-yl)-N,N-dimethylacetamide] | 100 to 1000 nM | < 100 nM | 1000 to 50000 nM |
| Cc1nn2ccc(-c3[nH]c4ccc(C5CCNCC5)cc4c3C(C)C)nc2c1F [Example 150, 3-fluoro-5-(3-isopropyl-5-(piperidin-4-yl)-1H-indol-2-yl)-2-methylpyrazolo[1,5-a]pyrimidine] | 1000 to 50000 nM | 1000 to 50000 nM | 1000 to 50000 nM |
| CNC(=O)CN1CCC(c2ccc3[nH]c(-c4cc(F)c5nccn5c4)c(C(C)C)c3c2)CC1 [Example 410, 2-(4-(2-(8-fluoroimidazo[1,2-a]pyridin-6-yl)-3-isopropyl-1H-indol-5-yl)piperidin-1-yl)-N-methylacetamide] | 100 to 1000 nM | < 100 nM | 1000 to 50000 nM |
| CC(C)c1c(-c2ccnc3[nH]ncc23)[nH]c2ccc(C3CCN(C(=O)CN4CCC[C@H]4C(N)=O)CC3)cc12 [Example 584, (S)-1-(2-(4-(3-isopropyl-2-(1H-pyrazolo[3,4-b]pyridin-4-yl)-1H-indol-5-yl)piperidin-1-yl)-2-oxoethyl)pyrrolidine-2-carboxamide] | < 100 nM | < 100 nM | 1000 to 50000 nM |
| CC(C)c1c(-c2ccc3cncn3c2)[nH]c2ccc(C3CCNCC3)cc12 [Example 183, 6-(3-isopropyl-5-(piperidin-4-yl)-1H-indol-2-yl)imidazo[1,5-a]pyridine] | 100 to 1000 nM | 100 to 1000 nM | 1000 to 50000 nM |
| CNC(=O)CN1CCC(c2ccc3[nH]c(-c4ccc(C)n5ncnc45)c(C(C)C)c3c2)CC1 [Example 386, 2-(4-(3-isopropyl-2-(5-methyl-[1,2,4]triazolo[1,5-a]pyridin-8-yl)-1H-indol-5-yl)piperidin-1-yl)-N-methylacetamide] | 100 to 1000 nM | < 100 nM | 1000 to 50000 nM |
| CCc1c[nH]c2nccc(-c3[nH]c4ccc(C5CCNCC5)cc4c3C)c12 [Example 219, 4-(3-methyl-5-(piperidin-4-yl)-1H-indol-2-yl)-3-ethyl-1H-pyrrolo[2,3-b]pyridine] | 100 to 1000 nM | 100 to 1000 nM | 100 to 1000 nM |
| Cc1cc(-c2[nH]c3ccc(C4CCNCC4)cc3c2C(C)C)cc2cccnc12 [Example 141, 6-(3-isopropyl-5-(piperidin-4-yl)-1H-indol-2-yl)-8-methylquinoline] | < 100 nM | < 100 nM | 1000 to 50000 nM |
| Cc1cc(-c2[nH]c3ccc(C4CCN(C5COC5)CC4)cc3c2C(C)C)cc2[nH]c(=O)oc12 [Example 708, 5-(3-isopropyl-5-(1-(oxetan-3-yl)piperidin-4-yl)-1H-indol-2-yl)-7-methylbenzo[d]oxazol-2(3H)-one] | 100 to 1000 nM | 100 to 1000 nM | 1000 to 50000 nM |
| CC(C)c1c(-c2ccn3nccc3n2)[nH]c2ccc(C3CCNCC3)cc12 [Example 193, 5-(3-isopropyl-5-(piperidin-4-yl)-1H-indol-2-yl)pyrazolo[1,5-a]pyrimidine] | 100 to 1000 nM | 100 to 1000 nM | 1000 to 50000 nM |
| CNC(=O)CN1CCC(c2ccc3[nH]c(-c4cnc5nn(C)cc5c4)c(C(C)C)c3c2)CC1 [Example 368, 2-(4-(3-isopropyl-2-(2-methyl-2H-pyrazolo[3,4-b]pyridin-5-yl)-1H-indol-5-yl)piperidin-1-yl)-N-methylacetamide] | > 3130 nM | 1000 to 50000 nM | 1000 to 50000 nM |
| CNCCN1CCC(c2ccc3[nH]c(-c4ccc5nccnc5c4)c(C)c3c2)CC1 [Example 658] | 1000 to 50000 nM | 1000 to 50000 nM | 100 to 1000 nM |
